Where “and” joins values, the source holds several entries; their conditions need not be identical. Equal entries are not always repeated.
Tests used:
[1] = test system: NIH3T3 stably expressing the KFERQ-PS-Dendra; test: CMA activity, KFERQ-PS-Dendra fluorescent reporter in NIH3T3 mouse fibroblasts; type: cell-based; design: CMA activity (Fig. 1d), MEAN / CMA activity (Fig. 1e-g), mean / CMA activity (Fig. 1d), individual experiments / CMA activity, mean (Fig. S2c, second panel) / CMA activity, mean (Fig. S2c, first panel) / CMA activity, mean (Fig. S2c, third panel): unit not given here; details: for CMA activity (Fig. 1e-g), mean: n = 4; for CMA activity, mean (Fig. S2c, first panel) / CMA activity, mean (Fig. S2c, second panel) / CMA activity, mean (Fig. S2c, third panel): compound and cell type of panel not shown
Description: (§1) Cells were transduced with lentivirus carrying the KFERQ-PS-Dendra reporter as before. Cells were photoactivated by exposure to a 3.5 mA (current constant) light emitting diode (LED: Norlux, 405 nm) for 3 min and then plated in glass-bottom 96 well plates. At the desired times, cells were fixed with 4% PFA and imaged using high-content microscopy (Operetta system, Perkin Elmer). Images were quantified using the manufacturer’s software in a minimum of 1,200 cells in 9 independent fields per well. […] This was particularly important in the case of primary human cells where the efficiency of transduction was ~65%. To avoid confounding effects for drug-induced changes in cell volume or adherence to the plate that could bring a fraction of the cells per field outside of focus, we set a threshold to count only […] that have at least 1/10 of the average number of […] detected in the untreated wells for each cell type (3–4 puncta/cell in the case of NIH3T3 and N2a cells and 5 puncta/cell in primary human fibroblasts).

[2] = test system: neuroblastoma cell line N2a expressing the KFERQ-PS-Dendra reporter; test: CMA activity, KFERQ-PS-Dendra reporter in N2a cells; type: cell-based, mouse; design: CMA activity, mean (Fig. S2a): unit not given here
Description: as §1

[3] = concentration 10 (unit not given)
[4] = concentration 15 (unit not given)
[5] = concentration 20 (unit not given)
[6] = concentration 25 (unit not given)
[7] = concentration 30 (unit not given)
[8] = concentration 40 (unit not given)
[9] = concentration 50 (unit not given)

Structure (SMILES): Clc1ccc2c(c1)OCC(c1ccc(-c3ccccc3)cc1)=N2 [CA39]
- CMA activity (Fig. 1d), MEAN ([1]; 20 μM of each compound, n = 3 independent experiments): 4.580
- CMA activity (Fig. 1d), individual experiments ([1]; 20 μM of each compound, single experiments): 5.482 and 4.270 and 3.988
- CMA activity (Fig. 1e-g), mean ([1]; 12h, concentration 0.02 (unit not given)): 3.045
- CMA activity (Fig. 1e-g), mean ([1]; 12h, concentration 0.2): 3.489
- CMA activity (Fig. 1e-g), mean ([1]; 12h, concentration 2): 3.493
- CMA activity (Fig. 1e-g), mean ([1]; 12h, concentration 5): 8.168
- CMA activity (Fig. 1e-g), mean ([1]; 12h, concentration 10): 10.4134
- CMA activity (Fig. 1e-g), mean ([1]; 12h, concentration 20): 22.9828
- CMA activity (Fig. 1e-g), mean ([1]; 12h, concentration 30): 30.7253
- CMA activity (Fig. 1e-g), mean ([1]; 12h, concentration 40): 33.0782
- CMA activity (Fig. 1e-g), mean ([1]; 12h, concentration 50): 21.8692
- CMA activity (Fig. 1e-g), mean ([1]; 24h, concentration 0.02): 3.576
- CMA activity (Fig. 1e-g), mean ([1]; 24h, concentration 0.2): 3.419
- CMA activity (Fig. 1e-g), mean ([1]; 24h, concentration 2): 5.488
- CMA activity (Fig. 1e-g), mean ([1]; 24h, concentration 5): 11.6083
- CMA activity (Fig. 1e-g), mean ([1]; 24h, concentration 10): 17.8717
- CMA activity (Fig. 1e-g), mean ([1]; 24h, concentration 20): 34.1318
- CMA activity (Fig. 1e-g), mean ([1]; 24h, concentration 30): 35.2802
- CMA activity (Fig. 1e-g), mean ([1]; 24h, concentration 40): 50.2311
- CMA activity (Fig. 1e-g), mean ([1]; 24h, concentration 50): 60.1885
- CMA activity (Fig. 1h-j), mean, untreated (0) = 1 ([1]; concentration 0.2, 12+12w (12 h, then 12 h after washing out)): 1.104
- CMA activity (Fig. 1h-j), mean, untreated (0) = 1 ([1]; concentration 0.2, 12h): 0.9726
- CMA activity (Fig. 1h-j), mean, untreated (0) = 1 ([1]; concentration 0.2, 24h): 1.209
- CMA activity (Fig. 1h-j), mean, untreated (0) = 1 ([1]; concentration 2, 12+12w): 1.202
- CMA activity (Fig. 1h-j), mean, untreated (0) = 1 ([1]; concentration 2, 12h): 0.9735
- CMA activity (Fig. 1h-j), mean, untreated (0) = 1 ([1]; concentration 2, 24h): 1.941
- CMA activity (Fig. 1h-j), mean, untreated (0) = 1 ([1]; concentration 5, 12+12w): 1.546
- CMA activity (Fig. 1h-j), mean, untreated (0) = 1 ([1]; concentration 5, 12h): 2.277
- CMA activity (Fig. 1h-j), mean, untreated (0) = 1 ([1]; concentration 5, 24h): 4.106
- CMA activity, mean (Fig. S2c, first panel) [1, 3]: 74.2616
- CMA activity, mean (Fig. S2c, second panel) [1, 3]: 29.9019
- CMA activity, mean (Fig. S2c, third panel) [1, 3]: 74.2616
- CMA activity (Fig. 1h-j), mean, untreated (0) = 1 ([1]; concentration 10, 12+12w): 2.775
- CMA activity (Fig. 1h-j), mean, untreated (0) = 1 ([1]; concentration 10, 12h): 2.902
- CMA activity (Fig. 1h-j), mean, untreated (0) = 1 ([1]; concentration 10, 24h): 6.322
- CMA activity, mean (Fig. S2c, first panel) [1, 4]: 68.2986
- CMA activity, mean (Fig. S2c, second panel) [1, 4]: 41.4399
- CMA activity, mean (Fig. S2c, third panel) [1, 4]: 68.2986
- CMA activity, mean (Fig. S2c, first panel) [1, 5]: 74.8347
- CMA activity, mean (Fig. S2c, second panel) [1, 5]: 54.0516
- CMA activity, mean (Fig. S2c, third panel) [1, 5]: 74.8347
- CMA activity (Fig. 1h-j), mean, untreated (0) = 1 ([1]; concentration 20, 12+12w): 4.843
- CMA activity (Fig. 1h-j), mean, untreated (0) = 1 ([1]; concentration 20, 12h): 6.406
- CMA activity (Fig. 1h-j), mean, untreated (0) = 1 ([1]; concentration 20, 24h): 12.0736
- CMA activity, mean (Fig. S2c, first panel) [1, 6]: 71.1281
- CMA activity, mean (Fig. S2c, second panel) [1, 6]: 57.8636
- CMA activity, mean (Fig. S2c, third panel) [1, 6]: 71.1281
- CMA activity, mean (Fig. S2c, first panel) [1, 7]: 76.3164
- CMA activity, mean (Fig. S2c, second panel) [1, 7]: 40.4368
- CMA activity, mean (Fig. S2c, third panel) [1, 7]: 76.3164
- CMA activity (Fig. 1h-j), mean, untreated (0) = 1 ([1]; concentration 30, 12+12w): 9.0956
- CMA activity (Fig. 1h-j), mean, untreated (0) = 1 ([1]; concentration 30, 12h): 8.564
- CMA activity (Fig. 1h-j), mean, untreated (0) = 1 ([1]; concentration 30, 24h): 12.4798
- CMA activity, mean (Fig. S2c, first panel) [1, 8]: 78.3071
- CMA activity, mean (Fig. S2c, second panel) [1, 8]: 58.9165
- CMA activity, mean (Fig. S2c, third panel) [1, 8]: 78.3071
- CMA activity, mean (Fig. S2c, first panel) [1, 9]: 53.1619
- CMA activity, mean (Fig. S2c, second panel) [1, 9]: 68.5848
- CMA activity, mean (Fig. S2c, third panel) [1, 9]: 53.1619
- CMA activation compared with AR7 ([1]; fluorescent CMA reporter in mouse fibroblasts, basal and inducible CMA): > 40 % CMA of AR7
- toxicity in cells ([1]; mouse fibroblasts): without noticeable toxicity
- CMA activity, mean relative to concentration 0 = 1 (Fig. S2b) ([2]; 12+12w, concentration 0.2): 0.9934
- CMA activity, mean relative to concentration 0 = 1 (Fig. S2b) ([2]; 12+12w, concentration 2): 0.9832
- CMA activity, mean relative to concentration 0 = 1 (Fig. S2b) ([2]; 12+12w, concentration 5): 3.155
- CMA activity, mean relative to concentration 0 = 1 (Fig. S2b) ([2]; 12+12w, concentration 10): 2.605
- CMA activity, mean relative to concentration 0 = 1 (Fig. S2b) ([2]; 12+12w, concentration 20): 4.196
- CMA activity, mean relative to concentration 0 = 1 (Fig. S2b) ([2]; 12+12w, concentration 30): 3.752
- CMA activity, mean (Fig. S2a) ([2]; 12h, concentration 0.02): 3.028
- CMA activity, mean (Fig. S2a) ([2]; 12h, concentration 0.2): 4.51
- CMA activity, mean relative to concentration 0 = 1 (Fig. S2b) ([2]; 12h, concentration 0.2): 1.03
- CMA activity, mean (Fig. S2a) ([2]; 12h, concentration 2): 4.84
- CMA activity, mean relative to concentration 0 = 1 (Fig. S2b) ([2]; 12h, concentration 2): 1.106
- CMA activity, mean (Fig. S2a) ([2]; 12h, concentration 5): 10.9424
- CMA activity, mean relative to concentration 0 = 1 (Fig. S2b) ([2]; 12h, concentration 5): 2.5
- CMA activity, mean (Fig. S2a) ([2]; 12h, concentration 10): 9.785
- CMA activity, mean relative to concentration 0 = 1 (Fig. S2b) ([2]; 12h, concentration 10): 2.2356
- CMA activity, mean (Fig. S2a) ([2]; 12h, concentration 20): 12.4415
- CMA activity, mean relative to concentration 0 = 1 (Fig. S2b) ([2]; 12h, concentration 20): 2.842
- CMA activity, mean (Fig. S2a) ([2]; 12h, concentration 30): 12.3771
- CMA activity, mean relative to concentration 0 = 1 (Fig. S2b) ([2]; 12h, concentration 30): 2.828
- CMA activity, mean (Fig. S2a) ([2]; 12h, concentration 40): 18.3499
- CMA activity, mean (Fig. S2a) ([2]; 12h, concentration 50): 17.0288
- CMA activity, mean (Fig. S2a) ([2]; 12h, concentration 60): 19.2922
- CMA activity, mean (Fig. S2a) ([2]; 24h, concentration 0.02): 3.481
- CMA activity, mean (Fig. S2a) ([2]; 24h, concentration 0.2): 5.502
- CMA activity, mean relative to concentration 0 = 1 (Fig. S2b) ([2]; 24h, concentration 0.2): 1.258
- CMA activity, mean (Fig. S2a) ([2]; 24h, concentration 2): 4.784
- CMA activity, mean relative to concentration 0 = 1 (Fig. S2b) ([2]; 24h, concentration 2): 1.094
- CMA activity, mean (Fig. S2a) ([2]; 24h, concentration 5): 12.5789
- CMA activity, mean relative to concentration 0 = 1 (Fig. S2b) ([2]; 24h, concentration 5): 2.876
- CMA activity, mean (Fig. S2a) ([2]; 24h, concentration 10): 14.7898
- CMA activity, mean relative to concentration 0 = 1 (Fig. S2b) ([2]; 24h, concentration 10): 3.382
- CMA activity, mean (Fig. S2a) ([2]; 24h, concentration 20): 22.8096
- CMA activity, mean relative to concentration 0 = 1 (Fig. S2b) ([2]; 24h, concentration 20): 5.216
- CMA activity, mean (Fig. S2a) ([2]; 24h, concentration 30): 25.6157
- CMA activity, mean relative to concentration 0 = 1 (Fig. S2b) ([2]; 24h, concentration 30): 5.858
- CMA activity, mean (Fig. S2a) ([2]; 24h, concentration 40): 31.0418
- CMA activity, mean (Fig. S2a) ([2]; 24h, concentration 50): 34.0174
- CMA activity, mean (Fig. S2a) ([2]; 24h, concentration 60): 32.9288
- CMA activation in neuron-related mouse cells ([2]; in words): efficiently activated CMA

— PMC9304322, “Targeting retinoic acid receptor alpha-corepressor interaction activates chaperone-mediated autophagy and protects against retinal degeneration” (Nature Communications, 2022)
